Measured values as given in ChEMBL document CHEMBL4613264, “Design, Synthesis, and Biological Evaluation of New Peripheral 5HT2A Antagonists for Nonalcoholic Fatty Liver Disease” (J Med Chem, 2020).
pIC50: −log10 of the molar value.

Experiments:
[1] = target: 5-hydroxytryptamine receptor 2A (Homo sapiens, UniProt P28223); assay: Antagonist activity at 5HT2A receptor (unknown origin) expressed in HEK293 cells assessed as inhibition of serotonin hydrochloride-induced calcium flux preincubated for 1 hr followed by serotonin hydrochloride addition by calcium 6 dye based FLIPR assay; assay type: functional, cell-based
5-hydroxytryptamine receptor 2A, sequence (P28223 whole entry): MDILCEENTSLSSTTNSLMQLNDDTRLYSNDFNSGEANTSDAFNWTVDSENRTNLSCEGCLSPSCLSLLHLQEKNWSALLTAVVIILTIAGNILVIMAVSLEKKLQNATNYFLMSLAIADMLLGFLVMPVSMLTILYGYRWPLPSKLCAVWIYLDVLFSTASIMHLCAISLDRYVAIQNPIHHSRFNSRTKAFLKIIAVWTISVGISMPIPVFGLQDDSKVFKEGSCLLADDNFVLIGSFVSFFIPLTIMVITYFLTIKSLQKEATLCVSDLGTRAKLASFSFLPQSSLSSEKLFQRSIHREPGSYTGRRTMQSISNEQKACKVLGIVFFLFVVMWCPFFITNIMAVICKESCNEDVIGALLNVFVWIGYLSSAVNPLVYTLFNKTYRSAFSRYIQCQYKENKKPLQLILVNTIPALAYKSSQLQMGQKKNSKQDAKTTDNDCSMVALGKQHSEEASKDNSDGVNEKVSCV

[2] = Plasma concentration in ICR mouse at 10 mg/kg, ip measured after 0.5 hrs by LC-MS/MS analysis
[3] = Ratio of drug level in brain to plasma of ICR mouse at 10 mg/kg, ip measured after 0.5 hrs by LC-MS/MS analysis; details: read-out: BPR
[4] = Drug level in ICR mouse brain at 10 mg/kg, ip measured after 0.5 hrs by LC-MS/MS analysis; details: read-out: Drug uptake

| pIC50 [1] | SMILES | further results |
| --- | --- | --- |
| 8.71 | CN1CCC(N(Cc2ccc(F)cc2)C(=O)NCc2ccc(OCC(O)CN3CCN(C(=O)OC(C)(C)C)CC3)cc2)CC1 (stereo not drawn) | – |
| 5.95 | CC(C)COc1ccc(CNC(=O)N(Cc2ccc(F)cc2)C2CCN(C(=S)NC(C)C)CC2)cc1 | – |
| 5.70 | CC(C)COc1ccc(CNC(=O)N(Cc2ccc(F)cc2)C2CCN(S(C)(=O)=O)CC2)cc1 | – |
| 7.46 | CC(C)COc1ccc(CNC(=O)N(Cc2ccc(F)cc2)C2CCN(C(=O)C[C@H](N)C(=O)O)CC2)cc1 | – |
| 6.50 | CC(C)COc1ccc(CNC(=O)N(Cc2ccc(F)cc2)C2CCN(C(=O)CCC(=O)O)CC2)cc1 | – |
| – | CC(C)COc1ccc(CNC(=O)N(Cc2ccc(F)cc2)C2CCN(C)CC2)cc1 [PIMAVANSERIN] | concentration at 0.5 h [2]: 612 ng/mL; Kp at 0.5 h [3]: 4.98; concentration at 0.5 h [4]: 3010 ng/g |
